The text below walks through data of PubChem BioAssay AID248 (DTP/NCI, 2004).

Each structure is given as a SMILES string. Values joined by “and” are separate entries in the source; they are usually repeats but may differ in a detail not shown here. Identical values can stand only once. Toxic doses and inconclusive results are not listed.

The test system of the test is L1210 leukemia ip in BDF1 mice, survival T/C. Description: NCI In Vivo Anticancer Drug Screen. Data for tumor model L1210 Leukemia (intraperitoneal) in B6D2F1 (BDF1) mice. To be noted: endpoint: mean survival time, higher = longer survival. An outline of the steps: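 Each compound was tested against a transplantable tumor grown in mice. The endpoint was survival, with treated animals benchmarked against vehicle controls as a simple ratio.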

Where [1] appears, read: dose: 100.0 mg/kg/injection, schedule: Q04DX003 (ip), vehicle: Klucel (hydroxypropylcellulose) (HPC).
Where [2] appears, read: dose: 200.0 mg/kg/injection, schedule: Q04DX003 (ip), vehicle: Klucel (hydroxypropylcellulose) (HPC).
Setting [3] is: dose: 400.0 mg/kg/injection, schedule: Q04DX003 (ip), vehicle: Klucel (hydroxypropylcellulose) (HPC).
Where [4] appears, read: dose: 100.0 mg/kg/injection, schedule: Q01DX001 (ip), vehicle: saline.
Setting [5] is: dose: 200.0 mg/kg/injection, schedule: Q01DX001 (ip), vehicle: saline.
The mark [6] stands for this setting: dose: 400.0 mg/kg/injection, schedule: Q01DX001 (ip), vehicle: saline.

On to `Nc1nc(SCc2ccccc2)c2[nH]cnc2n1`, for which the T/C is, setting by setting: (dose: 4.0 mg/kg/injection, schedule: Q01DX Z (ip), vehicle: carboxymethylcellulose (CMC)) 124 % of control; (dose: 5.0 mg/kg/injection, schedule: Q03DX Z (ip), vehicle: carboxymethylcellulose (CMC)) 92 % of control; (dose: 8.0 mg/kg/injection, schedule: Q01DX010 (ip), vehicle: saline) 100 % of control; (dose: 8.0 mg/kg/injection, schedule: Q01DX Z (oral), vehicle: carboxymethylcellulose (CMC)) 158 % of control; (dose: 10.0 mg/kg/injection, schedule: Q01DX Z (ip), vehicle: carboxymethylcellulose (CMC)) 152 % of control; (dose: 10.0 mg/kg/injection, schedule: Q03DX Z (ip), vehicle: carboxymethylcellulose (CMC)) 116 % of control. Moreover, the T/C was 124 % of control (dose: 15.0 mg/kg/injection, schedule: Q03DX Z (ip), vehicle: carboxymethylcellulose (CMC)); 151 % of control (dose: 20.0 mg/kg/injection, schedule: Q01DX001 (ip), vehicle: carboxymethylcellulose (CMC)); 216 % of control (dose: 20.0 mg/kg/injection, schedule: Q03DX Z (ip), vehicle: carboxymethylcellulose (CMC)); 163 % of control (dose: 41.0 mg/kg/injection, schedule: Q01DX001 (ip), vehicle: carboxymethylcellulose (CMC)); 158 % of control (dose: 41.0 mg/kg/injection, schedule: Q03DX Z (ip), vehicle: carboxymethylcellulose (CMC)); 165 % of control (dose: 41.0 mg/kg/injection, schedule: Q07DX Z (ip), vehicle: carboxymethylcellulose (CMC)). For the same compound, the T/C (dose: 60.0 mg/kg/injection, schedule: Q01DX Z (ip), vehicle: carboxymethylcellulose (CMC)) is 118 % of control; the T/C (dose: 62.5 mg/kg/injection, schedule: Q01DX010 (ip), vehicle: saline) was 108 % of control; the T/C (dose: 64.0 mg/kg/injection, schedule: Q01DX Z (oral), vehicle: carboxymethylcellulose (CMC)) is 124 % of control; the T/C (dose: 82.0 mg/kg/injection, schedule: Q01DX001 (ip), vehicle: carboxymethylcellulose (CMC)) is 157 % of control; the T/C (dose: 82.0 mg/kg/injection, schedule: Q07DX Z (ip), vehicle: carboxymethylcellulose (CMC)) is 168 % of control; the T/C (dose: 86.0 mg/kg/injection, schedule: Q01DX001 (ip), vehicle: carboxymethylcellulose (CMC)) was 163 % of control. The T/C reads like this: (dose: 125.0 mg/kg/injection, schedule: Q01DX010 (ip), vehicle: saline) 103 % of control; (dose: 129.0 mg/kg/injection, schedule: Q01DX001 (ip), vehicle: carboxymethylcellulose (CMC)) 160 % of control; (dose: 195.0 mg/kg/injection, schedule: Q01DX001 (ip), vehicle: carboxymethylcellulose (CMC)) 168 % of control and 181 % of control; (dose: 292.0 mg/kg/injection, schedule: Q03DX Z (ip), vehicle: carboxymethylcellulose (CMC)) 101 % of control; (dose: 292.0 mg/kg/injection, schedule: Q07DX Z (ip), vehicle: carboxymethylcellulose (CMC)) 114 % of control.

Consider `CC1(c2ccc(Cl)cc2)NC(=O)N(CN2CCCCC2)C1=O` (centres undefined), for which the T/C was 102 % of control (dose: 12.5 mg/kg/injection, schedule: Q01DX009 (ip), vehicle: saline sonified); 96 % of control (dose: 25.0 mg/kg/injection, schedule: Q01DX009 (ip), vehicle: saline sonified); 104 % of control (dose: 50.0 mg/kg/injection, schedule: Q01DX009 (ip), vehicle: saline sonified).

`CC(=O)NC(C)CCC(C)C` (centres undefined): the T/C was 101 % of control under setting [1], 100 % of control under setting [2] and 101 % of control under setting [3].

For `CCOC(=O)c1c[nH]c(C)c1C`, the T/C is, setting by setting: under setting [1], 104 % of control; under setting [2], 109 % of control; under setting [3], 105 % of control.

Take `CC/C(=C/c1ccccc1)C(N)=O`: the T/C was 87 % of control (dose: 100.0 mg/kg/injection, schedule: Q01DX001 (ip), vehicle: steriod suspending solution) and 103 % of control (dose: 200.0 mg/kg/injection, schedule: Q01DX001 (ip), vehicle: steriod suspending solution).

For `COC(=O)c1nc(Cl)nc(N)c1Cl`, the T/C was 94 % of control under setting [1], 94 % of control under setting [2] and 97 % of control under setting [3].

Consider `CNc1nc(=O)n(C2CCCO2)cc1C` (centres undefined), for which the T/C is, setting by setting: under setting [4], 90 % of control; under setting [5], 98 % of control; under setting [6], 95 % of control.

As for `CC(=O)OC1COC(n2cnc3c(N)ncnc32)C(OC(C)=O)C1OC(C)=O` (centres undefined), the T/C was 100 % of control (dose: 50.0 mg/kg/injection, schedule: Q01DX001 (ip), vehicle: saline); 97 % of control under setting [4]; 100 % of control under setting [5].

As for `OCC1OC(n2cnc3ccccc32)C(O)C1O` (centres undefined), the T/C is, setting by setting: under setting [4], 100 % of control; under setting [5], 100 % of control; under setting [6], 95 % of control.

On to `c1ccc(Cc2ccccn2)nc1`, for which the T/C is, setting by setting: (dose: 100.0 mg/kg/injection, schedule: Q04DX003 (ip), vehicle: saline sonified) 110 % of control; (dose: 200.0 mg/kg/injection, schedule: Q04DX003 (ip), vehicle: saline sonified) 104 % of control; (dose: 400.0 mg/kg/injection, schedule: Q04DX003 (ip), vehicle: saline sonified) 104 % of control.
